In publication PMC10825133, “Repurposing proteasome inhibitors for improved treatment of triple-negative breast cancer” (Cell Death Discovery, 2024):
Where two headings read alike, the source gives them in different places. Residues, ends and D or L forms follow the SMILES beside them. *: point of attachment. Cbz = O=C(OCc1ccccc1)*

What was measured:
[1] = test system: CAL-148 cells; assay: Resazurin-based cell viability assay, monotherapy drug screen; parameters: species or system human; AUC: unit not given beside the values; settings: for AUC: area under the dose response curve, 24 h; for GRmax: drug efficacy at highest tested dose (<0 cytotoxic, 0 cytostatic, >0 partial growth inhibition)
Experimental: (§1) Eighteen pharmaceutical compounds were purchased from Selleckchem (Supplementary Table 2). Stock solutions were prepared using dimethyl sulfoxide (DMSO; Merck), physiological saline (sodium chloride 0.9%) or Milli-Q water, and stored at −80 °C. […] Matched concentration solvent vehicle controls were used for each drug concentration. The drug screens were performed in triplicate and repeated three (monotherapy) or two (combination therapy) times (Fig. 7).
(§2) The optimal seeding density per 96-well was determined for each cell line as previously described. The cells were seeded at a density of 4.0 × 10^3 to 7.5 × 10^3 (cell type dependent) in 96-well clear, flat-bottom microplates (Corning Life Sciences, Sigma-Aldrich) in 100 µl complete culture medium (Supplementary Table 1) and cultured for 24 h. Cell viability was determined using the resazurin assay in untreated cells at the time of plating (t = 0) and treated cells after 24 h drug treatment (Fig. 7). Percentage cell viability was calculated as 100% × (absorbance of treated cells – absorbance of background controls) / (absorbance of matched solvent vehicle controls – absorbance of background controls). The area under the curve (AUC), half-maximal inhibitory concentration (IC50), drug potency (GR50), and drug efficacy (GRmax) were determined for each compound using the GRmetrics (version 1.20.0) package in R. The monotherapy data were evaluated with the IDACombo (version 1.0.2) package in R to predict potential drug combinations (Table 1). SynergyFinder (version 3.2.10) package in R was used to identify synergistic drug combinations.
(§3) Eighteen pharmaceutical compounds were purchased from Selleckchem. […] The solubility of the compound was enhanced by pre-heating the solvent (lukewarm), if necessary. […] The stock solutions were stored at -80°C. […] Matched concentration solvent vehicle controls were used for each drug concentration. The drug screens were performed in triplicate and repeated three times for the monotherapies and twice for the combination treatments. The drug(s) and corresponding controls were plated in 96-well PCR plates (VWR) and stored at -20°C (Fig. 6). The drug plates were thawed, centrifuged (3000 rpm for 30s), and acclimatized to RT before the drugs were added to the cells. New drug plates were prepared for each drug screen.
Cell viability was measured daily (day 0 [plating day] to day 4) using 0.2 mg/ml resazurin solution prepared from resazurin sodium salt (Fisher Scientific) dissolved in sterile 1xPBS (ThermoFisher Scientific). Before use, the resazurin solution was brought to RT before 10 µl (10% of cell medium volume) was added to each 96-well and incubated for 4h at 37°C. […] The slope of the curve was used to determine the optimal seeding density, i.e., the highest seeding density with linear growth between days 1 and 3.
(§4) The cells were seeded at a density of 4.0x10^3 to 7.5x10^3 (cell type-dependent) in 96-well clear, flat-bottom microplates (Corning Life Sciences, Sigma-Aldrich) in 100 µl culture medium supplemented with 10% FBS and cultured for 24h. Cell viability was determined using the resazurin assay after 24h drug treatment (Fig. 6). Percentage cell viability was calculated as 100% × (absorbance of treated cells – absorbance of background controls) / (absorbance of matched solvent vehicle controls – absorbance of background controls). Normalized growth rate inhibition (GR) was assessed using the absorbance of untreated cells after the time of plating (t = 0). […] For combination treatment, the monotherapy data were evaluated with the IDACombo (version 1.0.2)[20] package in R to predict potential drug combinations (Table 1). SynergyFinder (version 3.2.10)[21] package in R was used to identify synergistic drug combinations.

[2] = test system: HCC38 cells; assay: Combination therapy, resazurin viability, SynergyFinder; assay type: cell-based, human
Experimental: as §1, §2, §3, §4

[3] = test system: eight TNBC cell lines and two controls (MCF-10A and MCF-7); assay: Monotherapy drug screen, all investigated cell lines; assay type: cell-based, human; settings: for drug potency classification, below the threshold: GR50 and AUC both below the threshold
Experimental: as §1, §2, §3, §4

[4] = test system: control cell lines (MCF-10A and MCF-7); assay: Monotherapy drug screen, mean across the controls; assay type: cell-based, human; settings: for IC50: 24 h drug treatment, read-out: GR50 (mean ± SD); for area under the dose response curve (AUC), mean ± SD: 24 h
Experimental: as §1, §2, §3, §4

[5] = biological target: T1, β5 catalytic site of the 20 S proteasome (Homo sapiens, UniProt P28074); assay: Proteasome activity of the β5 catalytic site in MCF-7 cells (Suc-Leu-Leu-Val-Tyr-AMC substrate); assay type: cell-based; settings: for inhibition at 1 µM: 1000 nM
T1 construct: endogenous in cells; host or cells: MCF-7
Experimental: Proteasome activity of the β5 catalytic site was determined for the PIs using a Suc-Leu-Leu-Val-Tyr-AMC fluorescent proteasome substrate (Enzo Life Sciences, Cat. BML-P802) at a final concentration of 20 µM. MCF-7 cells were seeded at 7.5 × 10^3 cells/well in black 96-well flat-bottom microplates (Nuclon™ Delta Surface, ThermoFisher Scientific) with 100 µl culture medium supplemented with 10% FBS. After 24 h, the cells were treated for 6 h with the 11 PIs at 1, 10, 100, and 1000 nM and matched untreated controls.

[6] = test system: CAL-148 cells; assay: Combination therapy, resazurin viability, SynergyFinder; assay type: cell-based, human
Experimental: as §1, §2, §3, §4

[7] = Homo sapiens, CAL-148, growth rate inhibition concentration at GR(c) = 0.5, 24 h, read-out: GR50 (the source's name)
[8] = metrics GR50 < 1.0 µM and AUC < 0.80
[9] = CAL-148, 24 h drug treatment, read-out: IC50
[10] = CAL-148, growth rate inhibition concentration at GR(c) = 0.5, 24 h, read-out: GR50 (the source's name)
[11] = MCF7, MCF-7 cells treated 6 h, 10000 nM, read-out: inhibition of β5 activity
[12] = Homo sapiens, CAL-148, 24 h drug treatment, read-out: IC50
[13] = Homo sapiens, CAL-148, 24 h, read-out: GR50 (µM)

| Structure (SMILES) | AUC ([1]; CAL-148) | GRmax ([1]; CAL-148) | IC50 [1, 7] | drug potency classification, below the threshold [3] | drug potency classification [3, 8] | also measured |
| --- | --- | --- | --- | --- | --- | --- |
| COC[C@H](NC(=O)c1cnc(C)s1)C(=O)N[C@@H](COC)C(=O)N[C@@H](Cc1ccccc1)C(=O)[C@@]1(C)CO1 [Oprozomib] | 0.90 | 0.14 | 1.1 µM |  |  |  |
| CC(=O)O[C@H]1C(=O)[C@@]2(C)[C@H]([C@H](OC(=O)c3ccccc3)[C@]3(O)C[C@H](OC(=O)[C@H](O)[C@@H](NC(=O)c4ccccc4)c4ccccc4)C(C)=C1C3(C)C)[C@]1(OC(C)=O)CO[C@@H]1C[C@@H]2O [Paclitaxel] | 0.92 | 0.51 | 1.1 µM |  |  | inhibition at 0.01 µM ([2]; Homo sapiens, paclitaxel 10 nM alone): -0.18%; inhibition at 0.078 µM ([2]; Homo sapiens, paclitaxel 78 nM alone): 10.6%; inhibition at 0.625 µM ([2]; Homo sapiens, paclitaxel 625 nM alone): 21.1%; inhibition at 5 µM ([2]; Homo sapiens, paclitaxel 5000 nM alone): 24.7% |
| CC(=O)O[C@@]12CO[C@@H]1C[C@H](O)[C@@]1(C)C(=O)[C@H](O)C3=C(C)[C@@H](OC(=O)[C@H](O)[C@@H](NC(=O)OC(C)(C)C)c4ccccc4)C[C@@](O)([C@@H](OC(=O)c4ccccc4)[C@H]21)C3(C)C [Docetaxel] | 0.89 | 0.74 |  | highly potent drugs | potent drugs | IC50 ([4]; Homo sapiens): 7.8 ± 1.3 nM |
| N.N.[Cl][Pt][Cl] [Cisplatin] | 0.48 | −0.97 |  |  | potent drugs | IC50 [1, 9]: 0.048 µM; IC50 [1, 10]: 0.032 µM; area under the dose response curve (AUC), mean ± SD [4]: 0.54 ± 0.12 |
| CC(C)C[C@H](NC(=O)CNC(=O)c1cc(Cl)ccc1Cl)B1OC(=O)C(CC(=O)O)(CC(=O)O)O1 [MLN 9708, MLN-9708] | 0.88 | 0.40 | 0.5 µM |  | potent drugs | inhibition at 10 µM [5, 11]: 51% |
| CC(C)C[C@H](NC(=O)[C@@H](NC(=O)c1cccc(-c2ccccc2)n1)[C@@H](C)O)B(O)O [Delanzomib] | 0.77 | 0.39 | 0.023 µM | highly potent drugs | potent drugs | inhibition at 1 µM ([5]; MCF7, MCF-7 cells treated 6 h): 55%; inhibition at 10 µM [5, 11]: 100%; IC50 ([4]; Homo sapiens): 24 ± 13 nM |
| COc1cccc2c1C(=O)c1c(O)c3c(c(O)c1C2=O)C[C@@](O)(C(=O)CO)C[C@@H]3O[C@H]1C[C@H](N)[C@@H](O)[C@H](C)O1 [Epirubicin] | 0.73 | 0.14 | 0.11 µM |  |  | IC50 [1, 12]: 0.2 µM |
| CC(C)C[C@H](NC(=O)CNC(=O)c1cc(Cl)ccc1Cl)B(O)O [MLN 2238, MLN-2238] | 0.83 | 0.18 | 0.27 µM | highly potent drugs | potent drugs | inhibition at 10 µM [5, 11]: 33% |
| [NH2][Pt]1([NH2])[O]CC(=O)[O]1 [Nedaplatin] | 0.78 | −0.93 |  |  | potent drugs | Inhibition (%) ([6]; nedaplatin 8 µM alone): −9.21%; Inhibition (%) ([6]; nedaplatin 32 µM alone): 2.14%; Inhibition (%) ([6]; nedaplatin 128 µM alone): 9.01%; Inhibition (%) ([6]; nedaplatin 512 µM alone): 49.72%; IC50 [1, 9]: 0.32 µM; IC50 [1, 10]: 0.21 µM; area under the dose response curve (AUC), mean ± SD [4]: 0.70 ± 0.13 |
| CC1=C(O)C(=O)C=C2C1=CC=C1[C@@]2(C)CC[C@@]2(C)[C@@H]3C[C@](C)(C(=O)O)CC[C@]3(C)CC[C@]12C [Celastrol] | 0.85 | −0.84 |  |  |  | IC50 ([1]; Homo sapiens, CAL-148, 24 h): 3.7 µM; IC50 [1, 13]: 3.1 µM |
| CC(C)C[C@H](NC(=O)[C@H](Cc1ccccc1)NC(=O)c1cnccn1)B(O)O [Bortezomib] | 0.77 | 0.17 | 0.12 µM | highly potent drugs | potent drugs | inhibition at 0.01 µM ([6]; Homo sapiens, bortezomib 10 nM alone): 12.5%; inhibition at 0.078 µM ([6]; Homo sapiens, bortezomib 78 nM alone): 62.8%; inhibition at 0.625 µM ([6]; Homo sapiens, bortezomib 625 nM alone): 55.1%; inhibition at 5 µM ([6]; Homo sapiens, bortezomib 5000 nM alone): 55.6%; inhibition at 1 µM ([5]; MCF7, MCF-7 cells treated 6 h): 95%; inhibition at 10 µM [5, 11]: 100%; area under the dose response curve (AUC), mean ± SD [4]: 0.69 ± 0.10; IC50 ([4]; Homo sapiens): 21 ± 9.7 nM |
| CC(C)C[C@H](NC(=O)[C@H](CCc1ccccc1)NC(=O)CN1CCOCC1)C(=O)N[C@@H](Cc1ccccc1)C(=O)N[C@@H](CC(C)C)C(=O)[C@@]1(C)CO1 [Carfilzomib] | 0.84 | −0.01 | 0.37 µM | highly potent drugs | potent drugs |  |
| CC(C)C[C@@H](C=O)NC(=O)[C@H](CC(C)C)NC(=O)[C@H](CC(C)C)NC(=O)OCc1ccccc1 [MG 132, MG-132] (Cbz-Leu-Leu-Leu-aldehyde) | 0.89 | 0.22 |  |  |  | inhibition at 10 µM ([5]; MCF7, read-out: inhibition of β5 activity): 25%; IC50 [1, 13]: 3.4 µM |
| COc1cccc2c1C(=O)c1c(O)c3c(c(O)c1C2=O)C[C@@](O)(C(=O)CO)C[C@@H]3O[C@H]1C[C@H](N)[C@H](O)[C@H](C)O1 [Doxorubicin] | 0.72 | 0.15 | 0.12 µM |  |  | IC50 [1, 12]: 0.22 µM |
| CC[C@H](C)[C@H](NC(=O)[C@H]([C@@H](C)CC)N(C)C(C)=O)C(=O)N[C@H](C(=O)N[C@@H](CC(C)C)C(=O)[C@@]1(C)CO1)[C@@H](C)O [Epoxomicin] | 0.78 | 0.11 |  | highly potent drugs |  | drug potency classification [3]: potent drugs; IC50 [1, 10]: 0.77 µM; area under the dose response curve (AUC), mean ± SD [4]: 0.66 ± 0.080; IC50 [4]: 85 ± 10 nM |
| N.N.O=C([O-])C1(C(=O)[O-])CCC1.[Pt+2] [Carboplatin] | 0.92 | 0.03 |  |  |  | Inhibition (%) ([2]; carboplatin 8 µM alone): −3.64%; Inhibition (%) ([2]; carboplatin 32 µM alone): −1.55%; Inhibition (%) ([2]; carboplatin 128 µM alone): 0.55%; Inhibition (%) ([2]; carboplatin 512 µM alone): 11.55%; IC50 [1, 9]: 0.93 µM; IC50 [1, 10]: 0.49 µM |
